We go through one compound from article PMC10497752, “Heparins are potent inhibitors of ectonucleotide pyrophosphatase/phospho-diesterase-1 (NPP1) – a promising target for the immunotherapy of cancer” (Frontiers in Immunology, 2023).

Experiment [1] relates to U87 human glioblastoma cells. Nature of the experiment: U87 cell-based assay, extracellular adenosine formation from ATP (CE-UV). The settings on record: U-87 MG, 300 µM ATP, 3 h, DP and EHNA, 10 µg/mL (~ 6 µM). As to the method:
U87 human glioblastoma cells were grown in cell culture flasks until reaching a fully covered confluent cell layer. Cells were cultivated at 37°C and 5% CO2 in DMEM with additions of 10% FCS, 1% penicillin/streptomycin and 1% L-glutamine. The cells were rinsed with phosphate-buffered saline (PBS) and detached with EDTA. Thereafter, they were counted by a Cell Counter CASY® 1 Model TT (Schärfe System GmbH, Reutlingen, Germany) to retrieve the number of viable cells, and washed three times with PBS before they were resuspended in Krebs-HEPES buffer at a concentration of 10^6 cells/mL ([37]). Then, 1 mL of cell suspension was transferred into a 24-well plate. The cells were pretreated with the nucleoside transport inhibitor dipyridamole (20 µM) for 30 min ([38]). Adenosine deaminase (ADA) activity was inhibited by the addition of 1 µM of the inhibitor EHNA (erythro-9-amino-β-hexyl-α-methyl-9H-purine-9-ethanol hydrochloride) ([39]). Heparins, their non-anticoagulative analogs, and the known ectonucleotidase inhibitor PSB-POM-141 ([20]) were added. The samples were incubated with 300 µM of ATP for 3 h at 37°C and 5% CO2. […]
The percentage of inhibition of adenosine format ion in U87 cell supernatants by heparin derivatives was calculated from the conversion rate as follows: […]

For the next experiment, the target named is T1, human CD73 (Homo sapiens, UniProt P21589).
T1 sequence (P21589 27-574): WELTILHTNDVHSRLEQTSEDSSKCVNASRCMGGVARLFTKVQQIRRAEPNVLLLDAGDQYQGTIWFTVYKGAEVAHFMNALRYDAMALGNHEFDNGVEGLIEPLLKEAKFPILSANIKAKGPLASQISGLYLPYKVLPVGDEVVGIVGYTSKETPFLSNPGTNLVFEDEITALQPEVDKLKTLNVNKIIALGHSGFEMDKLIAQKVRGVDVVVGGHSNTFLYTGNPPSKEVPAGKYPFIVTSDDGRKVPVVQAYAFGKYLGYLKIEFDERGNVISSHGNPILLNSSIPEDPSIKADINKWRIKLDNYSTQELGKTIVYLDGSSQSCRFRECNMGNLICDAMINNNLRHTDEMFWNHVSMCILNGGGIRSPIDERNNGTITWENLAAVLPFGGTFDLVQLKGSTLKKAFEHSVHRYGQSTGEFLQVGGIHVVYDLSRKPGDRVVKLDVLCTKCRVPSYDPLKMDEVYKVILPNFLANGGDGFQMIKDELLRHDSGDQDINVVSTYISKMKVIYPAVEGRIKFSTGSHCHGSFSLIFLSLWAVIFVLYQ
Briefly: CD73 radioactive assay, [2,8-3H]AMP. Format: biochemical. The settings on record: 20 µg/mL (12 µM). As to the method:
The assay was performed essentially as previously described ([32]). The enzymatic reaction was performed by mixing 0.36 ng of human CD73 ([33]) with test compound in assay buffer (25 mM Tris, 140 mM sodium chloride, 25 mM sodium dihydrogen phosphate, pH 7.4) and 5 µM of [2,8-^3H]AMP [(specific activity 7.4x10^8 Bq/mmol (20 mCi/mmol)), American Radio-labeled Chemicals, MO, USA, distributed by Hartmann Analytic, Germany]. Compound 7 was used at 800 µg/mL and compound 6 at 20 µg/mL for the selectivity test, while for initial screening compound 5 was tested at a concentration of 55 µM and 6 at 30 µM, and 1 and 2 were tested at 50 IU/mL ( Supplementary Figure 1 ). The enzymatic reaction was performed for 25 min at 37°C in a shaking water bath. Then, 500 µL of cold precipitation buffer (100 mM lanthanum chloride, 100 mM sodium acetate, pH 4.00) was added to stop the reaction and to facilitate precipitation of free phosphate and unconverted [2,8-^3H]-AMP. […] After washing each reaction vial three times with 400 µL of cold (4°C) demineralized water, 5 mL of the scintillation cocktail (ULTIMA Gold XR, PerkinElmer, MA, USA) was added and the radioactivity was measured by scintillation counting (TRICARB 2900 TR, Packard/PerkinElmer; counting efficacy: 49-52%). […]

In the case of `CO[C@H]1O[C@H](COS(=O)(=O)O)[C@@H](O[C@@H]2O[C@@H](C(=O)O)[C@@H](O[C@H]3O[C@H](COS(=O)(=O)O)[C@@H](O[C@@H]4O[C@H](C(=O)O)[C@@H](O[C@H]5O[C@H](COS(=O)(=O)O)[C@@H](O)[C@H](O)[C@H]5NS(=O)(=O)O)[C@H](O)[C@H]4O)[C@H](OS(=O)(=O)O)[C@H]3NS(=O)(=O)O)[C@H](O)[C@H]2OS(=O)(=O)O)[C@H](O)[C@H]1NS(=O)(=O)O` [Compound 6, Fondaparinux], testing at 10 µg/mL in experiment [1] gave an inhibition of 60%. Besides, on human CD73, the “CD73 inhibition, selectivity study” value is recorded as “no effect”.
